Columns and labels:
human skin fibroblasts = assay: Cell proliferation and collagen synthesis on treated pericardium; type: cell-based; conditions: discussion summary
Protocol: Discs, 15 mm in diameter, were punched out from PA-treated bovine pericardium and inserted into the bottom of 24-well plates, After washing and equilibrating with PBS, human skin fibroblasts, 8×10^4/well, third passage (kindly provided by Dr. Warren Garner, University of Southern California) were placed on top of the tissues. After 48 h of culture in 10% FBS/DMEM, the medium was changed to labeling medium ([^3H]thymidine, 10 μCi/mL, 0.5% FBS/DMEM) followed by a 24-h labeling period. Cells proliferation was assayed and collagen synthesis recorded as [^3H]OH-proline incorporation in a culture medium containing 25 μg/mL ascorbic acid, 25 μg/mL β-APN and 25 μCi/mL [^3H]proline in 0.5% FBS/DMEM after labeling for 48 h.

Fischer 344 rats = assay: Subcutaneous implantation of treated tissue
From the text: Three-week-old Fischer 344 rats were obtained from Harlan Sprague Dawley, Inc. (Indianapolis, Ind.). NIH and University of Southern California IACUC guidelines for the care and use of laboratory animals were observed. […] The samples were retrieved after 3 and 6 weeks postoperation, and samples were processed for H&E and von Kossa staining, the latter to determine the extent of calcification.

NIH 3T3 cells = system: NIH 3T3 cells
Protocol: NIH 3T3 cells were used in these studies. Cells were cultured in 24-well plates at a density of […] in 10% FBS/DMEM overnight. […] Cells were incubated for 72 hours before cell counting and morphological studies.

bovine pericardium [1] = assay: In vitro enzymatic degradation by collagenase, H&E histology; conditions: 24 h digestion, 0.5% proanthocyanidin or 0.625% GA treated, fresh tissues disintegrated
Protocol: Tissue integrity was checked at the end of the incubation using a standard histological method (hematoxylin-eosin (H&E)). […] At predetermined intervals, 1.0 mL solution was taken out and filtered through an 0.45-μM cellulose filter to separate solubilized collagen from insolubilized matrix. The amount of solubilized collagen was determined after total acid hydrolysis in 6N HCl for 24 h at 100° C. by measuring hydroxyproline (R. Kultan et al., “Collagen Treated with (+)-Catechin Becomes Resistant to the Action of Mammalian Collagenase,” Experientia 37: 221-223 (1981)). The results are expressed as a percentage of the total collagen solubilized.

bovine tendon = target: T1, bovine tendon (Bos taurus, UniProt P02453+P02465); assay: Melting temperature measurement of fixed tendon; conditions: treated 48 hours, n = 3; PA 0.5% in PBS, GA 0.625% in PBS; untreated control 55 ± 0.5; in °C
T1 construct: Fresh bovine tendon; from tissue; host or cells: bovine tendon
T1 sequence (P02453 162-1217 limits assumed): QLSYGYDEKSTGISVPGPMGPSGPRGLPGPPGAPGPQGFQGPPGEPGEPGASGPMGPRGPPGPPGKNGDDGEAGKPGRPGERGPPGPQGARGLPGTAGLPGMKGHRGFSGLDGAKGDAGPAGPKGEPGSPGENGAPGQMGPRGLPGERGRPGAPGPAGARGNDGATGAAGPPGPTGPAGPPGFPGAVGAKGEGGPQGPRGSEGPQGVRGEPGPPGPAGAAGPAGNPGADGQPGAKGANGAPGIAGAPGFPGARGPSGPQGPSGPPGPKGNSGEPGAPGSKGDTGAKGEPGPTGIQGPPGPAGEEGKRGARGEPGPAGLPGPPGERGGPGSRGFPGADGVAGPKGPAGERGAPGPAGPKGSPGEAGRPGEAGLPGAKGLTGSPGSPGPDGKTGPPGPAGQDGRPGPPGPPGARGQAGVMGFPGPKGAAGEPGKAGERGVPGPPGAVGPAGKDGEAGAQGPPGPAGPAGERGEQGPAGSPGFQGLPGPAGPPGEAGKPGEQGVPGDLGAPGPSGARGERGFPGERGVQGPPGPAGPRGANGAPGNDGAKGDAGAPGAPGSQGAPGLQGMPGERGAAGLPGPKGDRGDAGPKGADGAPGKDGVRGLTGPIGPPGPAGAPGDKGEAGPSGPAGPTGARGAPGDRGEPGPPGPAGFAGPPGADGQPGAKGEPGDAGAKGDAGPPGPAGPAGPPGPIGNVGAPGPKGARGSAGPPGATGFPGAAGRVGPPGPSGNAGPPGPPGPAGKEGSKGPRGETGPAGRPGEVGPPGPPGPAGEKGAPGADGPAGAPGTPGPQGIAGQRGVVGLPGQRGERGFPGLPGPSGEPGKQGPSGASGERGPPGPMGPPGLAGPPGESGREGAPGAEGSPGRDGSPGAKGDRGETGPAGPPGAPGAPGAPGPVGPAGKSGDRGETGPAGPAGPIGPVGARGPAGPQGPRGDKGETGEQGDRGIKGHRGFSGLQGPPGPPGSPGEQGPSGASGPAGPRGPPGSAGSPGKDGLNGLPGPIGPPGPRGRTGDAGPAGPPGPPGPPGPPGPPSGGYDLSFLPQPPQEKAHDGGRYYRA
T1 sequence (P02465 80-1117 limits assumed): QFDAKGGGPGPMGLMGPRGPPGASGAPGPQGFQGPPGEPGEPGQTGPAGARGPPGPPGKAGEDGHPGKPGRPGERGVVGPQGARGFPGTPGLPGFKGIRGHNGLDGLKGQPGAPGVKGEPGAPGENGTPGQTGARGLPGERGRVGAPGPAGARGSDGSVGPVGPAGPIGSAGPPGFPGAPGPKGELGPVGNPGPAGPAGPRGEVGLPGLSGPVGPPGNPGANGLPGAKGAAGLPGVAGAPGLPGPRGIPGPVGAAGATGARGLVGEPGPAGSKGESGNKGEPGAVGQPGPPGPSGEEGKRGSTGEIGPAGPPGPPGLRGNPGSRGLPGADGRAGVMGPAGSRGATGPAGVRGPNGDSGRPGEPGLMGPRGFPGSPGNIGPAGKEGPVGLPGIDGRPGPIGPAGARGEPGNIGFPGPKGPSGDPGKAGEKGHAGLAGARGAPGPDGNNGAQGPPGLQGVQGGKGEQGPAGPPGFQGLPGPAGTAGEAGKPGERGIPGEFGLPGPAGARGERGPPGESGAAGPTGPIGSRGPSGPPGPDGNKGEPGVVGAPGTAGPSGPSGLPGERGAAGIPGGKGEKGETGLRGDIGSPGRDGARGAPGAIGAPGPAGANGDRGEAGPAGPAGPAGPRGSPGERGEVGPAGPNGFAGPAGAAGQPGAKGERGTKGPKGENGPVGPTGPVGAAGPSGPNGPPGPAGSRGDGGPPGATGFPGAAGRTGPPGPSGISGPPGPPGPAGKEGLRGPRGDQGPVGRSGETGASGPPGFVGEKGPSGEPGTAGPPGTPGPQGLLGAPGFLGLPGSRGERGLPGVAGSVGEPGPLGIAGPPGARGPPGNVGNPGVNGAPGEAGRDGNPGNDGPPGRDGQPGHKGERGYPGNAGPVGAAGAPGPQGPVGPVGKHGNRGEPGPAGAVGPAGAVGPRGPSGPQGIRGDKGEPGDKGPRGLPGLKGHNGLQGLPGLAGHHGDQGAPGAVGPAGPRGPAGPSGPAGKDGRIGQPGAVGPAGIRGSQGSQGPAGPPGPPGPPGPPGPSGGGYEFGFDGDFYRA
Protocol: (§1) The fixed tissues and fresh tissues were assayed for their melting temperature by heating tissue strips (1×2 cm^2, n=3). The melting temperature was recorded when tissues started to shrink.

bovine pericardium [2] = assay: Melting temperature measurement of fixed pericardium; conditions: treated 48 hours, n = 3; PA 0.5% in PBS, GA 0.625% in PBS; untreated control 70 ± 1.0; in °C
Protocol: as §1

O=CCCCC=O [GA, glutaraldehyde]
rate of collagen synthesis of fibroblasts (human skin fibroblasts): inhibits collagen synthesis
degradation of fixed tissue after subcutaneous implantation (Fischer 344 rats; periods ranging from 3 and 6 weeks (discussion)): no apparent degradation
calcification (Von Kossa staining) (Fischer 344 rats; rat, in vivo): dystrophic calcification
calcification after implantation (Fischer 344 rats; rat, in vivo): encourages dystrophic calcification
tissue reaction to implant (Fischer 344 rats; rat, in vivo): lesser inflammatory reaction
implant degradation (Fischer 344 rats; six weeks postoperatively, control completely degraded): still intact
implant integrity (Fischer 344 rats; three weeks postoperatively, control tissues start to disaggregate): retain their integrity
cytotoxicity (FIG. 1 legend) (NIH 3T3 cells): cytotoxicity
cytotoxicity of treated tissue (NIH 3T3 cells): continues to be cytotoxic
concentration at which cells could not survive (NIH 3T3 cells; mouse, 72 h): > 600 ng/mL
collagen fibril structure after collagenase digestion (bovine pericardium [1]): remained intact
Melting temperature, Tendon (bovine tendon): 84 ± 1.0
Melting temperature, Pericardium (bovine pericardium [2]): 94 ± 1.5
